How the values were obtained:
Experiment in all cases: selective drug sensitivity score (sDSS, relative to normal bone marrow) (sDSS (score)); higher = more potent and effective on the cell line relative to normal bone marrow cells
Settings in all cases: 72 h
CCRF-HSB2 = test system: CCRF-HSB2
COG-LL-355h = test system: COG-LL-355h
COG-LL-394h = test system: COG-LL-394h
DND-41 = test system: DND-41
HAL-01 = test system: HAL-01
KASUMI-10 = test system: KASUMI-10
KASUMI-2 = test system: KASUMI-2
KASUMI-9 = test system: KASUMI-9
KOPN-8 = test system: KOPN-8
MHH-CALL-3 = test system: MHH-CALL-3
MOLT-16 = test system: MOLT-16
MOLT-4 = test system: MOLT-4
NALL-1 = test system: NALL-1
NALM-16 = test system: NALM-16
PEER = test system: PEER
PF-382 = test system: PF-382
REH = test system: REH
RPMI-8402 = test system: RPMI-8402
SUP-B15 = test system: SUP-B15
TANOUE = test system: TANOUE
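Note: ALL cell lines in 384-well plates, five doses spanning 10,000-fold, each plate scaled between vehicle and 100 µmol/L benzalkonium chloride controls, sDSS an adapted area-under-curve metric.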

SMILES	selective drug sensitivity score (CCRF-HSB2)	selective drug sensitivity score (COG-LL-355h)	selective drug sensitivity score (COG-LL-394h)	selective drug sensitivity score (DND-41)	selective drug sensitivity score (HAL-01)	selective drug sensitivity score (KASUMI-10)	selective drug sensitivity score (KASUMI-2)	selective drug sensitivity score (KASUMI-9)	selective drug sensitivity score (KOPN-8)	selective drug sensitivity score (MHH-CALL-3)	selective drug sensitivity score (MOLT-16)	selective drug sensitivity score (MOLT-4)	selective drug sensitivity score (NALL-1)	selective drug sensitivity score (NALM-16)	selective drug sensitivity score (PEER)	selective drug sensitivity score (PF-382)	selective drug sensitivity score (REH)	selective drug sensitivity score (RPMI-8402)	selective drug sensitivity score (SUP-B15)	selective drug sensitivity score (TANOUE)
COC(=O)N[C@@H](C)CNc1nccc(-c2cn(C(C)C)nc2-c2cc(Cl)cc(NS(C)(=O)=O)c2F)n1 [Encorafenib] (top concentration 1000 nM)	1.8	1.4	0.2	0	0	0	0	1.4	16.2	0	1	0	0	0	0.9	1.5	1.6	0	0.9	0
Nc1cc(C(F)(F)F)c(-c2cc(N3CCOCC3)nc(N3CCOCC3)n2)cn1 [Buparlisib] (top concentration 10000 nM)	4.18	5.68	0.38	-0.32	4.98	2.48	2.08	6.58	7.28	-1.22	4.08	4.38	1.28	3.98	6.48	5.38	5.18	6.88	4.38	-1.22
C[C@H]1O[C@@H](O[C@H]2[C@@H](O)C[C@H](O[C@H]3[C@@H](O)C[C@H](O[C@H]4CC[C@@]5(C)[C@H](CC[C@@H]6[C@@H]5C[C@@H](O)[C@]5(C)[C@@H](C7=CC(=O)OC7)CC[C@]65O)C4)O[C@@H]3C)O[C@@H]2C)C[C@H](O)[C@@H]1O [Digoxin] (top concentration 1000 nM)	6.6	8.7	4.1	2.4	9.9	10	5.9	7.1	12.9	10.5	12	12.3	6.3	4.9	5.5	11.1	6.3	8.3	9.2	-2.9
COc1ccc(COc2cc3oc(=O)c4cc(C(C)O)ccc4c3cc2OC)cc1 (stereo not given) [Palomid-529] (top concentration 10000 nM)	1.46	-0.24	-0.24	-0.24	-0.24	-0.24	-0.24	0.66	10.3	-0.24	4.36	2.26	-0.04	-0.24	4.16	1.06	6.66	2.86	5.26	0.36
O=C(Nc1nc2cccc(-c3ccc(CN4CCS(=O)(=O)CC4)cc3)n2n1)C1CC1 [Filgotinib] (top concentration 10000 nM)	-2.54	0.96	-3.34	1.66	5.66	1.46	-0.74	0.26	5.46	1.26	4.86	-5.34	5.86	-5.34	-2.04	-2.24	1.16	-2.24	-0.64	-5.34
CNC(=O)c1cccc(-c2ccc3c(N4CCOC[C@@H]4C)nc(N4CCOC[C@@H]4C)nc3n2)c1 [Vistusertib] (top concentration 10000 nM)	5.42	6.12	-1.28	9.02	5.12	0.32	15	11.8	19.7	2.12	5.62	3.12	-3.58	2.22	5.22	7.02	9.32	5.52	10.7	-2.78
Cc1c(-c2c(-c3ccc(F)o3)sc3ncnc(O[C@H](Cc4ccccc4OCc4ccnn4CC(F)(F)F)C(=O)O)c23)ccc(OCCN2CCN(C)CC2)c1Cl (top concentration 1000 nM)	-5.14	4.66	-4.54	-7.74	-7.74	-2.64	-4.34	-1.84	13.4	1.56	7.46	-2.84	-7.74	-4.64	-0.14	-7.74	-6.84	-4.54	6.36	-7.74
CN(C)C1CCN(C(=O)c2ccc(NC(=O)Nc3ccc(-c4nc(N5CCOCC5)nc(N5CCOCC5)n4)cc3)cc2)CC1 [Gedatolisib] (top concentration 1000 nM)	8.86	4.16	0.56	4.46	-4.54	1.36	7.56	9.36	10.1	-1.64	15.9	5.46	1.16	1.46	4.06	5.06	9.16	3.66	8.36	-1.04

— the supplement of paper PMC8967900
